Data published in ChEMBL document CHEMBL3992508, “Synthesis and bioactivity investigation of quinone-based dimeric cationic triazolium amphiphiles selective against resistant fungal and bacterial pathogens” (Eur J Med Chem, 2017).
Values after ≈ are worked out from the molar mass of the structure shown. Active and inactive are the calls of the source. The calls are words filed in the database; no cut-off is given here.

Key:
[1] = system: Staphylococcus aureus; test: Antibacterial activity against Staphylococcus aureus ATCC 25923; format: functional
[2] = system: Staphylococcus aureus; test: Antibacterial activity against methicillin-resistant Staphylococcus aureus ATCC 33591; format: functional
[3] = system: Enterococcus faecalis; test: Antibacterial activity against vancomycin-resistant Enterococcus faecalis ATCC 51299; format: functional
[4] = system: Escherichia coli; test: Antibacterial activity against Escherichia coli ATCC 25922; format: functional
[5] = system: Pseudomonas aeruginosa; test: Antibacterial activity against Pseudomonas aeruginosa ATCC 27853; format: functional
[6] = system: Klebsiella pneumoniae; test: Antibacterial activity against Klebsiella pneumoniae ATCC 13883; format: functional
[7] = system: Aspergillus flavus; test: Antifungal activity against Aspergillus flavus; format: functional
[8] = system: Candida albicans; test: Antifungal activity against azole-resistant Candida albicans ATCC 64124; format: functional
[9] = system: Candida albicans; test: Antifungal activity against azole-susceptible Candida albicans MYA2876; format: functional
[10] = system: Cryptococcus neoformans; test: Antifungal activity against Cryptococcus neoformans; format: functional
[11] = system: Rhodotorula mucilaginosa; test: Antifungal activity against Rhodotorula pilimanae; format: functional
[12] = system: SK-OV-3; test: Cytotoxicity against human SKOV3 cells at 10 ug/ml after 48 hrs by MTT assay; format: cell-based; settings: sk-ov-3, 48 h
[13] = system: SK-OV-3; test: Cytotoxicity against human SKOV3 cells after 48 hrs; format: cell-based; settings: SK-OV-3, 48 h
[14] = system: Candida albicans; test: Antifungal activity against Candida albicans ATCC 64124 assessed as cell membrane disruption at MIC after 1 hr by Sytox Green dye based fluorescence assay; format: functional
[15] = system: Fusarium graminearum; test: Antifungal activity against Fusarium graminearum B4-A5 assessed as cell membrane disruption at MIC after 1 hr by Sytox Green dye based fluorescence assay; format: functional
[16] = system: Staphylococcus aureus; test: Antibacterial activity against methicillin-resistant Staphylococcus aureus ATCC 33591 at 5 mg/ml; format: functional
[17] = system: Staphylococcus aureus; test: Antibacterial activity against Staphylococcus aureus ATCC 25923 at 5 mg/ml; format: functional
[18] = system: Enterococcus faecalis; test: Antibacterial activity against vancomycin-resistant Enterococcus faecalis ATCC 51299 at 5 mg/ml; format: functional
[19] = system: Escherichia coli; test: Antibacterial activity against Escherichia coli ATCC 25922 at 5 mg/ml; format: functional
[20] = system: Pseudomonas aeruginosa; test: Antibacterial activity against Pseudomonas aeruginosa ATCC 27853 at 5 mg/ml; format: functional
[21] = system: Klebsiella pneumoniae; test: Antibacterial activity against Klebsiella pneumoniae ATCC 13883 at 5 mg/ml; format: functional

SMILES	MIC [1]	MIC [2]	MIC [3]	MIC [4]	MIC [5]	MIC [6]	MIC [7]	MIC [8]	MIC [9]	MIC [10]	MIC [11]	Activity [12]	IC50 [13]	further results
CCCCCCCC[n+]1nn(CCCCCCn2n[n+](CCCCCCCC)c3c2C(=O)c2ccccc2C3=O)c2c1C(=O)c1ccccc1C2=O.O=S(=O)([O-])C(F)(F)F.O=S(=O)([O-])C(F)(F)F	4 µg/mL	4 to 8 µg/mL	1 µg/mL	2 to 4 µg/mL	4 µg/mL	16 µg/mL	15.6 µg/mL	3.91 µg/mL	3.91 µg/mL	3.9 µg/mL	2 µg/mL	Non-Toxic	74 µg/mL	–
CN[C@H](CC(C)C)C(=O)N[C@H]1C(=O)N[C@@H](CC(N)=O)C(=O)N[C@H]2C(=O)N[C@H]3C(=O)N[C@H](C(=O)N[C@H](C(=O)O)c4cc(O)cc(O)c4-c4cc3ccc4O)[C@H](O)c3ccc(c(Cl)c3)Oc3cc2cc(c3O[C@@H]2O[C@H](CO)[C@@H](O)[C@H](O)[C@H]2O[C@H]2C[C@](C)(N)[C@H](O)[C@H](C)O2)Oc2ccc(cc2Cl)[C@H]1O [VANCOMYCIN]	–	2 to 4 µg/mL (≈ 1.38 to 2.76 µM)	125 µg/mL (≈ 86.3 µM)	64 to 125 µg/mL (≈ 44.2 to 86.3 µM)	> 250 µg/mL	> 250 µg/mL	–	–	–	–	–	–	–	–
CCCC[n+]1nn(CCCCCCn2n[n+](CCCC)c3c2C(=O)c2ccccc2C3=O)c2c1C(=O)c1ccccc1C2=O.O=S(=O)([O-])C(F)(F)F.O=S(=O)([O-])C(F)(F)F	0.125 µg/mL	> 250 µg/mL	16 µg/mL	> 250 µg/mL	32 µg/mL	250 µg/mL	> 250 µg/mL	250 µg/mL	> 250 µg/mL	–	–	Non-Toxic	115 µg/mL	–
CC[n+]1nn(CCCCCCn2n[n+](CC)c3c2C(=O)c2ccccc2C3=O)c2c1C(=O)c1ccccc1C2=O.O=S(=O)([O-])C(F)(F)F.O=S(=O)([O-])C(F)(F)F	0.125 µg/mL	> 250 µg/mL	32 µg/mL	> 250 µg/mL	250 µg/mL	250 µg/mL	> 250 µg/mL	> 250 µg/mL	> 250 µg/mL	–	–	–	–	–
CCCCCCCCS(=O)(=O)OC[C@H]1O[C@H](O[C@@H]2[C@@H](O)[C@H](O[C@H]3O[C@H](CN)[C@@H](O)[C@H](O)[C@H]3O)[C@@H](N)C[C@H]2N)[C@H](O)[C@@H](N)[C@@H]1O.Cl.Cl.Cl.Cl	–	–	–	–	–	–	> 250 µg/mL	31.3 µg/mL	15.6 µg/mL	7.8 µg/mL	–	–	–	–
C[n+]1nn(CCCCCCn2n[n+](C)c3c2C(=O)c2ccccc2C3=O)c2c1C(=O)c1ccccc1C2=O.O=S(=O)([O-])C(F)(F)F.O=S(=O)([O-])C(F)(F)F	0.125 µg/mL	> 250 µg/mL	16 µg/mL	> 250 µg/mL	250 µg/mL	250 µg/mL	> 250 µg/mL	> 250 µg/mL	> 250 µg/mL	125 µg/mL	62.5 µg/mL	Toxic	46.1 µg/mL	–
CCCCCC[n+]1nn(CCCCCCn2n[n+](CCCCCC)c3c2C(=O)c2ccccc2C3=O)c2c1C(=O)c1ccccc1C2=O.O=S(=O)([O-])C(F)(F)F.O=S(=O)([O-])C(F)(F)F	4 µg/mL	8 to 16 µg/mL	4 µg/mL	8 to 16 µg/mL	16 µg/mL	250 µg/mL	> 250 µg/mL	250 µg/mL	> 250 µg/mL	125 µg/mL	15.6 µg/mL	Non-Toxic	109 µg/mL	–
OC(Cn1cncn1)(Cn1cncn1)c1ccc(F)cc1F [FLUCONAZOLE]	–	–	–	–	–	–	–	> 250 µg/mL	1.56 µg/mL (≈ 5.09 µM)	–	–	–	–	–
CCCCCCCCCC[n+]1nn(CCCCCCn2n[n+](CCCCCCCCCC)c3c2C(=O)c2ccccc2C3=O)c2c1C(=O)c1ccccc1C2=O.O=S(=O)([O-])C(F)(F)F.O=S(=O)([O-])C(F)(F)F	8 µg/mL	4 to 8 µg/mL	1 µg/mL	4 to 8 µg/mL	4 µg/mL	32 µg/mL	7.81 µg/mL	3.91 µg/mL	3.91 µg/mL	2 µg/mL	2 µg/mL	Non-Toxic	68.4 µg/mL	Activity [14]: Active; Activity [15]: Active
NCC[C@H](O)C(=O)N[C@@H]1C[C@H](N)[C@@H](O[C@H]2O[C@H](CN)[C@@H](O)[C@H](O)[C@H]2O)[C@H](O)[C@H]1O[C@H]1O[C@H](CO)[C@@H](O)[C@H](N)[C@H]1O [AMIKACIN]	0.5 µg/mL (≈ 0.854 µM)	16 µg/mL (≈ 27.3 µM)	> 250 µg/mL	1 µg/mL (≈ 1.71 µM)	1 µg/mL (≈ 1.71 µM)	1 µg/mL (≈ 1.71 µM)	–	–	–	–	–	–	–	–
O=C1c2ccccc2C(=O)c2c1nnn2CCCCCCn1nnc2c1C(=O)c1ccccc1C2=O	–	–	–	–	–	–	–	–	–	–	–	–	–	Activity [16]: inactive; Activity [17]: inactive; Activity [18]: inactive; Activity [19]: inactive; Activity [20]: inactive; Activity [21]: inactive
NC[C@H]1O[C@H](O[C@H]2[C@H](O)[C@@H](O[C@H]3O[C@H](CO)[C@@H](O)[C@H](N)[C@H]3O)[C@H](N)C[C@@H]2N)[C@H](O)[C@@H](O)[C@@H]1O [KANAMYCIN]	2 to 4 µg/mL (≈ 4.13 to 8.26 µM)	125 to 250 µg/mL (≈ 258 to 516 µM)	250 µg/mL (≈ 516 µM)	4 µg/mL (≈ 8.26 µM)	125 µg/mL (≈ 258 µM)	1 µg/mL (≈ 2.06 µM)	–	–	–	–	–	–	–	–
